Measurements from US20020065227A1, “Charged compounds comprising a nucleic acid binding moiety and uses therefor” (priority 2000, published 2002).
In brackets after ≈: the same amount, converted by molar mass. Several values for one entry are separate records, joined by “and”; a condition that tells them apart may be missing. Identical values can stand only once.

Assays:
Esherichia coli (25922) = assay: MIC, NCCLS broth microdilution; assay type: cell-based, Escherichia coli; conditions: Escherichia coli (25922)
[1] = tested on: Candida albicans (38247) (Polyene resistant); assay: MIC, antifungal assay; assay type: cell-based
[2] = tested on: Staphylococcus aureus (29213); assay: MIC, NCCLS broth microdilution; assay type: cell-based; conditions: Staphylococcus aureus (29213)
Bacillus cereus (11778) = assay: MIC, NCCLS broth microdilution; assay type: cell-based; conditions: Bacillus cereus (11778)
AGTACT = assay: DNase I footprint titration, AGTACT site; assay type: binding; conditions: equilibrium association constant Ka; pH 7.0, 22° C.
ACTACT = assay: DNase I footprint titration, ACTACT site; assay type: binding; conditions: equilibrium association constant Ka; pH 7.0, 22° C.
AATACT = assay: DNase I footprint titration, AATACT site; assay type: binding; conditions: equilibrium association constant Ka; pH 7.0, 22° C.
ATTACT = assay: DNase I footprint titration, ATTACT site; assay type: binding; conditions: equilibrium association constant Ka; pH 7.0, 22° C.
[3] = tested on: Enterococcus faecalis (29212); assay: MIC, NCCLS broth microdilution; assay type: cell-based; conditions: Enterococcus faecalis (29212)
[4] = tested on: Streptococcus pneumoniae (51422) (multiple drug resistant); assay: MIC, NCCLS broth microdilution; assay type: cell-based
[5] = tested on: Pseudomona aeruginosa (27853); assay: MIC, NCCLS broth microdilution; assay type: cell-based; conditions: Pseudomona aeruginosa (27853)
[6] = tested on: Staphylococcus epidermidis (12228); assay: MIC, NCCLS broth microdilution; assay type: cell-based; conditions: Staphylococcus epidermidis (12228)
[7] = tested on: Enterococcus faecium (51559) (vacomycin resistant); assay: MIC, NCCLS broth microdilution; assay type: cell-based; conditions: Enterococcus faecium (51559), vancomycin resistant
Micrococcus luteus (381) = assay: MIC, NCCLS broth microdilution; assay type: cell-based
[8] = tested on: Streptococcus pyogenes (49339); assay: MIC, NCCLS broth microdilution; assay type: cell-based; conditions: Streptococcus pyogenes (49339); Table Ia: Streptococcus Group A(49339)
[9] = tested on: Staphylococcus aureus (33591) (methicillin resistant); assay: MIC, NCCLS broth microdilution; assay type: cell-based; conditions: Staphylococcus aureus (33591), methicillin resistant (MRSA)
[10] = tested on: Corynebacterium Group A (49676); assay: MIC, NCCLS broth microdilution; assay type: cell-based; conditions: Corynebacterium Group A (49676)
[11] = tested on: Streptococcus pneumoniae (49619); assay: MIC, NCCLS broth microdilution; assay type: cell-based; conditions: Streptococcus pneumoniae (49619)

Compound	MIC (Esherichia coli (25922))	MIC [1]	MIC [2]	MIC (Bacillus cereus (11778))	other results
COc1snc(C(=O)Nc2cc(C(=O)Nc3cc(C(=O)Nc4cc(C(=O)NCCNC(=N)N)n(C)c4)n(C)c3)n(C)c2)c1Cl [V-oo]	32 µg/mL (≈ 49.7 µM)	1 µg/mL (≈ 1.55 µM)	0.25 µg/mL (≈ 0.388 µM)	0.5 µg/mL (≈ 0.776 µM)	–
CN=C(N)CCNC(=O)c1cc(NC(=O)c2cc(NC(=O)c3cc(NC(=O)c4nsc(Cl)c4Cl)cn3C)cn2C)cn1C [V-pp]	32 µg/mL (≈ 49.4 µM)	4 µg/mL (≈ 6.18 µM)	0.5 µg/mL (≈ 0.772 µM)	0.5 µg/mL (≈ 0.772 µM)	–
Cn1cc(NC(=O)c2cc(NC(=O)c3cc(NC(=O)c4nsc(Cl)c4Cl)cn3C)cn2C)cc1C(=O)NCCC(=N)N [V-ee]	64, μg/mL and 32 μg/mL	2 µg/mL (≈ 3.16 µM)	0.25, μg/mL and 0.125 μg/mL	0.25 µg/mL (≈ 0.395 µM)	–
CN(C)CCCNC(=O)CCNC(=O)c1cc(NC(=O)c2cc(NC(=O)c3cc(NC(=O)c4nc(NC(=O)CCCNC(=O)c5cc(NC(=O)c6cc(NC(=O)c7cc(NC(=O)c8nsc(NCCCN(C)C)c8Cl)cn7C)cn6C)cn5C)cn4C)cn3C)cn2C)cn1C [VI-b]	–	–	–	–	Binding Constant, sequence AGTACT (AGTACT): 1e+11 M⁻¹; Binding Constant, sequence ACTACT (ACTACT): 7e+09 M⁻¹; Binding Constant, sequence AATACT (AATACT): 7e+09 M⁻¹; Binding Constant, sequence ATTACT (ATTACT): 7e+09 M⁻¹
COc1snc(C(=O)Nc2cc(C(=O)Nc3cc(C(=O)Nc4cc(C(=O)NCCC(=N)N)n(C)c4)n(C)c3)n(C)c2)c1Cl [V-jj]	32 µg/mL (≈ 50.9 µM)	1 µg/mL (≈ 1.59 µM)	0.5 µg/mL (≈ 0.795 µM)	0.25 µg/mL (≈ 0.397 µM)	–
Cn1cc(NC(=O)c2cc(NC(=O)c3cc(NC(=O)c4nsc(NCCCNC5CCCCC5)c4Cl)cn3C)cn2C)cc1C(=O)NCCCNC1CCCCC1 [V-ff]	32 µg/mL (≈ 38.9 µM)	16 µg/mL (≈ 19.5 µM)	1 µg/mL (≈ 1.22 µM)	2 µg/mL (≈ 2.43 µM)	–
CN(C)CCCNC(=O)c1cc(NC(=O)c2cc(NC(=O)c3cc(NC(=O)c4nsc(NCCCN(C)C)c4Cl)cn3C)cn2C)cn1C [V-q]	>128 µg/mL	–	8 to 16 µg/mL	4 to 8 µg/mL	MIC [3]: 1 µg/mL (≈ 1.4 µM); MIC [4]: 4 µg/mL (≈ 5.6 µM); MIC [5]: >128 µg/mL; MIC [6]: 4 µg/mL (≈ 5.6 µM); MIC [7]: 4 µg/mL (≈ 5.6 µM); MIC (Micrococcus luteus (381)): 8 µg/mL (≈ 11.2 µM); MIC [8]: 1 µg/mL (≈ 1.4 µM); MIC [9]: 16 µg/mL (≈ 22.4 µM); MIC [10]: 1 µg/mL (≈ 1.4 µM); MIC [11]: 2 µg/mL (≈ 2.8 µM)
CN=C(CCNC(=O)c1cc(NC(=O)c2cc(NC(=O)c3cc(NC(=O)c4nsc(Cl)c4Cl)cn3C)cn2C)cn1C)NC [V-nn]	32 µg/mL (≈ 48.4 µM)	1 µg/mL (≈ 1.51 µM)	0.031 µg/mL (≈ 0.0469 µM)	0.064 µg/mL (≈ 0.0967 µM)	–
COCCCNc1snc(C(=O)Nc2cc(C(=O)Nc3cc(C(=O)Nc4cc(C(=O)NCCN5CCOCC5)n(C)c4)n(C)c3)n(C)c2)c1Cl [V-rr]	32 µg/mL (≈ 43.9 µM)	32 µg/mL (≈ 43.9 µM)	1 µg/mL (≈ 1.37 µM)	0.5 µg/mL (≈ 0.686 µM)	–
Cn1cc(NC(=O)c2cc(NC(=O)c3cc(NC(=O)c4nsc(NCCN5CCOCC5)c4Cl)cn3C)cn2C)cc1C(=O)NCCN1CCOCC1 [V-gg]	32 µg/mL (≈ 41.5 µM)	32 µg/mL (≈ 41.5 µM)	2, μg/mL and 1 μg/mL	–	–
Cn1cc(NC(=O)c2cc(NC(=O)c3cc(NC(=O)c4nsc(N5CCCCC5)c4Cl)cn3C)cn2C)cc1C(=O)NCCN1CCOCC1 [V-hh]	32 µg/mL (≈ 44.1 µM)	32 µg/mL (≈ 44.1 µM)	1 µg/mL (≈ 1.38 µM)	1 µg/mL (≈ 1.38 µM)	–
